Where a name gives a salt, the structure may show the parent alone.
Key:
[1] = biological target: FXa (Homo sapiens, UniProt P00742); assay: Factor Xa inhibition (FXa-IC50), Table 3 'Affinity to Receptors'
Text: The inhibition of factor Xa by the compounds according to the invention and the measurement of the anticoagulant and antithrombotic activity can be determined by conventional in-vitro or in-vivo methods.

[2] = biological target: TF/FVIIa (Homo sapiens, UniProt P08709); assay: TF/FVIIa inhibition (TF/FVIIa-IC50), Table 3 'Affinity to Receptors'
Sequence of TF/FVIIa (P08709 213-466 limits assumed): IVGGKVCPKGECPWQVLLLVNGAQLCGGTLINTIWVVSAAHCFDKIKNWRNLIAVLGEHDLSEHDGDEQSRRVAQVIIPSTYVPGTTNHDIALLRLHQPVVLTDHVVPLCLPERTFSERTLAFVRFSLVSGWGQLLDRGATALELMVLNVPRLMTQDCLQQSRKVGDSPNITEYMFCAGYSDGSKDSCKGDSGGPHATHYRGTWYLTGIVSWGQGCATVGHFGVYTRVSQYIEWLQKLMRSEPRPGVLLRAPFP
Sequence of TF/FVIIa (P08709 61-212 limits assumed): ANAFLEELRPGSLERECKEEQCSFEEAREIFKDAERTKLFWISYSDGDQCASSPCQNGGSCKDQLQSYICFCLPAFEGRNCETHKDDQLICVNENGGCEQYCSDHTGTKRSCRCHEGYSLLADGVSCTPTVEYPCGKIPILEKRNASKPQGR
Sequence of TF/FVIIa (P13726 33-295 partner): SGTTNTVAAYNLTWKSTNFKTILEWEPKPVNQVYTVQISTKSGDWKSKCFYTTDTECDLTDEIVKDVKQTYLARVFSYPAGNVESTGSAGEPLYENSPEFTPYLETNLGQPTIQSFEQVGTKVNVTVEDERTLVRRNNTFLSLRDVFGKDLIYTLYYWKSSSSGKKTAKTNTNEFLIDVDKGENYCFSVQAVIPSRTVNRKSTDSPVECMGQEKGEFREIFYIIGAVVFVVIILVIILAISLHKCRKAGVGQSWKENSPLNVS

Sequence of FXa (P00742 235-488 limits assumed): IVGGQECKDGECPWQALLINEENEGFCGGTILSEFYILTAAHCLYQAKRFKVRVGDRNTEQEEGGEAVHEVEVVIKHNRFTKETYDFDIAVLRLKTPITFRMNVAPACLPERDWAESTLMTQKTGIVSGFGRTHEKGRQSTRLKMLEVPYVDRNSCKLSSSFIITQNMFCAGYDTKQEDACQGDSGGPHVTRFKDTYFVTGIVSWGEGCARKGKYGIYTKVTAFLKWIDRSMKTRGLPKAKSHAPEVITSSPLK
Sequence of FXa (P00742 41-179 limits assumed): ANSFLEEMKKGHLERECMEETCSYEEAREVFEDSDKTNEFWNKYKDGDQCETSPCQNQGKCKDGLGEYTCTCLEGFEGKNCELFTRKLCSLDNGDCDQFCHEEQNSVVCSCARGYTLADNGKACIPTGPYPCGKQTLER

Row | SMILES | IC50 [1] | IC50 [2] | melting point
1 | N=C(N)c1cccc(NN(C(=O)Nc2ccc(N3CCOCC3=O)c(Cl)c2)c2ccccc2)c1 [Compound 4.AA, 1-(3-amidinophenyl)-4-[3-chloro-4-(3-oxomorpholin-4-yl)phenyl]-2-phenylsemicarbazide, hydrochloride] | 20 nM | 27 nM | 
2 | N#Cc1cccc(NN(C(=O)Nc2ccc(N3CCCCC3=O)cc2)c2ccccc2)c1 [5″, 1-(3-cyanophenyl)-4-[4-(2-oxopiperidin-1-yl)phenyl]-2-phenylsemicarbazide] |  |  | 239 to 241 °C
3 | Cc1cc(NC(=O)N(Nc2cccc(CN)c2)c2ccccc2)ccc1N1CCCCC1=O.Cl [Compound 13, 1-(3-aminomethylphenyl)-4-[3-methyl-4-(2-oxopiperidin-1-yl)phenyl]-2-phenylsemicarbazide, hydrochloride] | 130 nM | 170 nM | 95 to 97 °C
4 | Cc1cc(NC(=O)NN(c2ccccc2)c2cccc(C#N)c2)ccc1N1CCOCC1 [5′, 1-(3-cyanophenyl)-4-[3-methyl-4-(morpholin-4-yl)phenyl]-1-phenylsemicarbazide] |  |  | 115 to 116 °C
5 | Cc1cc(NC(=O)N(Nc2cccc(C(=N)N)c2)c2ccccc2)ccc1N1CCCCC1=O.Cl [Compound 11, 1-(3-amidinophenyl)-4-[3-methyl-4-(2-oxopiperidin-1-yl)phenyl]-2-phenylsemicarbazide, hydrochloride] | 8.6 nM | 5.1 nM | > 300 °C
6 | Cc1cc(NC(=O)NN(c2ccccc2)c2cccc(CN)c2)ccc1N1CCCCC1=O.Cl |  |  | 172 to 173 °C
7 | Cc1cc(NC(=O)NN(c2ccccc2)c2cccc(C(=N)N)c2)ccc1N1CCCCC1=O.Cl [Compound 10, 1-(3-amidinophenyl)-4-[3-methyl-4-(2-oxopiperidin-1-yl)phenyl]-1-phenylsemicarbazide, hydrochloride] | 16 nM | 9.8 nM | > 300 °C
8 | Cc1cc(NC(=O)NN(c2ccccc2)c2cccc(C#N)c2)ccc1N1CCCCC1=O [Compound 6, 1-(3-cyanophenyl)-4-[3-methyl-4-(2-oxopiperidin-1-yl)phenyl]-1-phenylsemicarbazide] |  |  | 161 to 162 °C

— patent US20050171102A1, “Semicarbazide derivatives for combating thromboembolic diseases” (priority 2002, published 2005)
